Experimental data reported in patent US20140323346A1, “BINDING AGENT” (Garvan Institute of Medical Research, priority 2011, published 2014).

Tests used:
[1] = test system: protein kinases in MDA-MB-231 breast cancer cell lysates; experiment: Affinity purification of kinases from MDA-MB-231 cell lysates on inhibitor resins, bound proteins identified by LC-MS/MS; type: binding, Homo sapiens; settings: MDA-MB-231 lysate
Description: MDA-MB-231 cells were cultured in RPMI1640 (Invitrogen) supplemented with 10% fetal bovine serum (Invitrogen) and insulin at 0.25 IU/ml. Subconfluent cells were lysed with ice-cold lysis buffer containing 50 mM HEPES-NaOH (pH 7.5), 150 mM NaCl, 0.5% Triton X-100, 1 mM EDTA 1 mM EGTA supplemented with additives (10 μg/ml aprotinin, 10 μg/ml leupeptin, 1 mM PMSF, 10 mM NaF, 50 ng/ml calyculin A, 1% phosphatase inhibitor mixture 3 (Sigma), and 2.5 mM Na3VO4) for 5 min on ice. Cell debris was removed by centrifugation at 16,500 g at 4° C. for 30 min and the supernatant was subsequently filtered through a 0.45 μm PVDF membrane (Millipore). Protein concentrations were measured by the Bradford assay (Bio-Rad).
Kinase inhibitors Purvalanol B (Tocris) and SU6668 (Biochempartner Chemical) were immobilized to EAH-sepharose 4B (GE Healthcare) and VI16832 (Evotec) was coupled to ECH-sepharose 4B (GE Healthcare) beads via a carbodiimide-mediated reaction. Briefly, 1 ml of beads were washed 3 times with 10 ml of 0.5 M NaCl, twice with 10 ml H2O and once with coupling buffer made of 50% dimethylformamide (DMF) and 50% ethanol. The washed and aspirated beads were then mixed with 1 ml of inhibitor solution (Purvalanol B at 10 mM, SU6668 at 10 mM and VI16832 at 3 mM dissolved in coupling buffer), followed by dropwise addition of 150 μl of 1 M N-(3-dimethylaminopropyl)-N-ethylcarbodiimide hydrochloride (EDC) in coupling buffer.
The coupling reaction was carried out in the dark at room temperature overnight on a rotating wheel. To block the remaining reactive groups, the resin was washed twice with 2 ml of coupling buffer followed by addition of 1 ml of DMF/ethanol/ethanolamine at ratio 1:1:1 (pH 8). The reaction was initiated by dropwise addition of 150 μl of 1 M EDC in coupling buffer and the mixture was then incubated again in the dark at room temperature overnight with gentle agitation. Subsequently the resin was washed 3 times with 10 ml of coupling buffer, twice with 10 ml of 0.5 M NaCl and once with 10 ml of 20% ethanol. The resin was stored in 20% ethanol as a suspension at 4° C. in the dark. For CTx-0294885 immobilization, activated CH Sepharose 4B (GE Healthcare) (0.5 g) was swelled with 20 ml of 1 mM HCl and collected by vacuum filtration. The collected resin was washed 4 times with 20 ml of 1 mM HCl, and mixed with 3 ml of CTx-0294885 (9 mM) dissolved in 50% DMF 50% 100 mM sodium bicarbonate (pH 8). The suspension was agitated on a shaker table for 18 h. The mixture was washed with 5 ml of 50% aqueous DMF and the resin was resuspended in IM ethanolamine in 50% aqueous DMF. The mixture was agitated for 1 h before the resin was collected by filtration and washed 5 times with 5 ml of 50% aqueous DMF, 10 times with 10 ml of 0.1 M acetate buffer (pH 4), 10 times with 10 ml of 0.1 M bicarbonate buffer (pH 8), and 10 times of 10 ml 20% ethanol. The resin was resuspended in 10 ml of 20% ethanol and stored at 4° C. An equally suitable alternative protocol for CTx-0294885 immobilization is described in Example 2.
The salt concentration in the protein lysates was adjusted to 1 M NaCl and the kinase inhibitor resins were washed once with 10 ml of H2O and once with 10 ml of washing buffer A (lysis buffer with 1 M NaCl plus 10 mM NaF and 0.1 mM Na3VO4) prior to kinase enrichment. For testing of single kinase inhibitors, 1 ml of inhibitor resin was incubated with 50 mg of protein lysates, and for multi-inhibitor resins, a cocktail comprising 1 ml of each inhibitor resin was used for incubation with 100 mg of protein lysates. After 2 h of incubation at 4° C. in the dark on a rotating wheel, the resins were washed twice with 10 ml of washing buffer A, once with 10 ml of washing buffer B (same as washing buffer A except NaCl concentration is 150 mM instead of 1 M) and once with washing buffer C (50 mM HEPES, 10 mM NaF and 0.1 mM Na3VO4). […]

[2] = test system: protein kinases from three different cell lines; settings: cited from earlier work

Row | Compound | proteins identified ([1]; CTx-0294885 coupled to CL sepharose 4B beads, single resin) | kinases of the RGC (receptor guanylate cyclase) family identified ([1]; FIG. 2A) | major kinase subgroups with representatives identified ([1]; FIG. 2A) | relative enrichment of kinase families ([1]; FIG. 2B) | kinases bound that are not bound by the other reagents (P, S, V) ([1]; comparison with purvalanol B, SU6668 and VI16832 columns) | enrichment of non-protein kinases ([1]; gene ontology analysis, FIG. 2C) | kinase identifications if phosphosites are included (kinases bound) ([1]; single resin) | kinases identified among the proteins identified ([1]; single resin, phosphosites not included) | protein kinases detected in total [2]
1 | CNC(=O)c1ccccc1Nc1nc(Nc2ccc(N3CCNCC3)cc2)ncc1Cl [CTx-0294885, 2-((5-Chloro-2-((4-(piperazin-1-yl)phenyl)amino)pyrimidin-4-yl)amino)-N-methylbenzamide] | 2546 | No kinases from the minor RGC (receptor guanylate cyclase) family were identified | 9 | particularly strong enrichment for kinases of the STE, CMGC and AGC subfamilies | 77 | enrichment for other purine nucleotide binding proteins | 240 | 185 | –
2 | NCCOc1ccc(Nc2ncc3ccc(=O)n(C4CC5CCC4C5)c3n2)cc1 (stereo not drawn) [VI16832] | – | – | – | – | – | – | – | – | 170
